Among the data in patent US10688093B2, “Methods, compositions, and uses of novel Fyn kinase inhibitors” (priority 2015, dated 2020) are IC50 values, retold here.

Sequence of full-length recombinant human FYN A (P06241 whole entry): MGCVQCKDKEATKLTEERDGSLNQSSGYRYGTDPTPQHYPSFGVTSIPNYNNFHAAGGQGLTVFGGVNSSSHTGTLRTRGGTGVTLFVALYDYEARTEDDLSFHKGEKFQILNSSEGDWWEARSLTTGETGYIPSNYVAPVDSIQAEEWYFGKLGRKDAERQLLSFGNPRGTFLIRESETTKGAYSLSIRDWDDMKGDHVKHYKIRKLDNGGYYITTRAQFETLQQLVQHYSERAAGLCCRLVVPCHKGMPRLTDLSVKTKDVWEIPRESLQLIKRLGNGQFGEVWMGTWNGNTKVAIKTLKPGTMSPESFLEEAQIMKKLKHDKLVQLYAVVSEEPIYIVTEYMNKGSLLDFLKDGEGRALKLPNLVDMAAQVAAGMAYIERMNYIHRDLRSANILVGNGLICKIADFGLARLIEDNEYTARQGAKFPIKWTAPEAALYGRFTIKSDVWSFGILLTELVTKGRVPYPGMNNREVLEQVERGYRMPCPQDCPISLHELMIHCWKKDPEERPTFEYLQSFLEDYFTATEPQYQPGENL

This experiment addresses full-length recombinant human FYN A (Homo sapiens (Human), UniProt P06241). Kind of experiment: ADP-Glo Kinase Assay of FYN kinase inhibition. Type of experiment: biochemical. To be noted: primary screen, initial compounds. The method, boiled down:
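GST-tagged full-length FYN A (baculovirus, Sf9) at 3 pg preincubated 30 min RT with compound (10-point 3-fold series from 10 μM) in Tris pH 7.5/MgCl2 buffer. 12-mer tyrosine peptide plus 12.5 pmol ATP added, 90 min RT; ADP measured by ADP-Glo luminescence, IC50 from dose-response.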
On the technique in general: ADP-Glo first removes unused ATP, then detects ADP through luciferase.
One may read the IC50 as the point on the concentration scale where inhibition reaches its midpoint. Take `CN(C)CCNC(=O)c1ccc(-c2cn3c(-c4ccc(Oc5ccccc5)cc4)cnc3cn2)cc1` [Compound 218, N-(2-dimethylamino-ethyl)-4-[3-(4-phenoxyphenyl)imidazo[1,2-a]pyrazin-6-yl]benzamide]: the IC50 was 0.165 µM.

On to `O=C(NCCO)c1ccc(-c2cn3c(-c4ccc(Oc5ccccc5)cc4)cnc3cn2)cc1` [Compound 219, N-(2-hydroxyethyl)-4-[3-(4-phenoxyphenyl)imidazo[1,2-a]pyrazin-6-yl]benzamide], for which the 50% inhibitory concentration (IC50) is 0.623 µM.

Regarding `CN(C)CCCNC(=O)c1ccc(-c2cn3c(-c4cccc(Cl)c4)cnc3cn2)cc1` [Compound 220, 4-[3-(3-chlorophenyl)imidazo[1,2-a]pyrazin-6-yl]-N-[3-(dimethylamino)propyl]benzamide], the IC50 is 8.43 µM.

`Nc1ccc(-c2cn3c(-c4ccc(Oc5ccccc5)cc4)cnc3cn2)cn1` [Compound 221, 5-[3-(4-phenoxyphenyl)imidazo[1,2-a]pyrazin-6-yl]pyridin-2-amine]: the IC50 stood at 1.72 µM.

In the case of `CN(C)CCCNC(=O)c1ccc(-c2cn3c(-c4ccsc4)cnc3cn2)cc1` [Compound 222, N-[3-(dimethylamino)propyl]-4-[3-(3-thienyl)imidazo [1,2-a]pyrazin-6-yl]benzamide], the concentration for half-maximal inhibition (IC50) worked out at 3.87 µM.

With `COc1ccc(-c2cnc3cnc(-c4ccc(N5CCN(C)CC5)cc4)cn23)cc1` [Compound 223, 3-(4-methoxyphenyl)-6-[4-(4-methyl-piperazin-1-yl)phenyl] imidazo[1,2-a]pyrazine], the IC50 stood at 5.25 µM.

Take `O=C(NCCO)c1cccc(-c2cn3c(-c4ccsc4)cnc3cn2)c1` [Compound 224, N-(2-hydroxyethyl)-3-[3-(3-thienyl)imidazo [1,2-a]pyrazin-6-yl]benzamide]: the IC50 is 3.67 µM.

`CN1CCN(c2ccc(-c3cn4c(-c5ccsc5)cnc4cn3)cn2)CC1` [Compound 225, 6-[6-(4-methylpiperazin-1-yl)-3-pyridyl]-3-(3-thienyl)imidazo [1,2-a]pyrazine]: the half-inhibitory concentration (IC50) was determined as 7.05 µM.

`Nc1ccc(-c2cn3c(-c4ccsc4)cnc3cn2)cn1` [Compound 226, 5-[3-(3-thienyl)imidazo [1,2-a]pyrazin-6-yl]pyridin-2-amine]: the IC50 was 2.46 µM.

In the case of `c1cc(-c2cn3c(-c4ccsc4)cnc3cn2)cs1` [Compound 227, 3,6-bis(3-thienyl)imidazo [1,2-a]pyrazine], the IC50 came to 8.47 µM.

As to `CN(C)CCNC(=O)c1ccc(-c2cn3c(-c4ccsc4)cnc3cn2)cc1` [Compound 228, N-(2-dimethylamino-ethyl)-4-[3-(3-thienyl)imidazo [1,2-a]pyrazin-6-yl]benzamide], the IC50 turned out to be 1.9 µM.

As for `Cn1cc(-c2cnc3cnc(-c4ccccc4Oc4ccccc4)cn23)cn1` [Compound 229, 3-(1-methylpyrazol-4-yl)-6-(2-phenoxyphenyl) imidazo[1,2-a]pyrazine], the IC50 amounted to 1.82 µM.

Regarding `CN1CCN(c2ccc(-c3cn4c(-c5cccc(O)c5)cnc4cn3)cn2)CC1` [Compound 230, 3-[6-[6-(4-methylpiperazin-1-yl)-3-pyridyl]imidazo [1,2-a]pyrazin-3-yl]phenol], the IC50 was 3.14 µM.

As for `CN(C)CCCOc1ccc(-c2cn3c(-c4ccc5c(c4)OCO5)cnc3cn2)cn1` [Compound 231, 3-[[5-[3-(1,3-benzodioxol-5-yl)imidazo[1,2-a]pyrazin-6-yl]-2-pyridyl]oxy]-N,N-dimethyl-propan-1-amine], the IC50 came out at 9.85 µM.

Consider `CCOc1cccc(-c2cn3c(-c4cccc(O)c4)cnc3cn2)c1` [Compound 232, 3-[6-(3-ethoxyphenyl)imidazo[1,2-a]pyrazin-3-yl]phenol], for which the IC50 was found to be 6.69 µM.

Consider `CN1CCN(c2ccc(-c3cn4c(-c5ccc6c(c5)OCO6)cnc4cn3)cc2)CC1` [Compound 233, 3-(1,3-benzodioxol-5-yl)-6-[4-(4-methylpiperazin-1-yl)phenyl] imidazo[1,2-a]pyrazine], for which the IC50 was 7.93 µM.

With `Oc1cccc(-c2cnc3cnc(-c4ccsc4)cn23)c1` [Compound 234, 3-[6-(3-thienyl)imidazo [1,2-a]pyrazin-3-yl]phenol], the IC50 is 2.52 µM.

Consider `CN1CCN(c2ccc(-c3cn4c(-c5cccc(O)c5)cnc4cn3)cc2)CC1` [Compound 235, 3-[6-[4-(4-methyl-piperazin-1-yl)phenyl]imidazo [1,2-a]pyrazin-3-yl]phenol], for which the IC50 was found to be 1.59 µM.

Regarding `CN(C)CCCNC(=O)c1ccc(-c2cn3c(-c4ccc(Cl)cc4)cnc3cn2)cc1` [Compound 236, 4-[3-(4-chlorophenyl)imidazo[1,2-a]pyrazin-6-yl]-N-[3-(dimethylamino)propyl]benzamide], the IC50 worked out at 4.9 µM.

Consider `CN(C)CCNC(=O)c1ccc(-c2cn3c(-c4ccc5c(c4)OCO5)cnc3cn2)cc1` [Compound 237, 4-[3-(1,3-benzodioxol-5-yl)imidazo[1,2-a]pyrazin-6-yl]-N-(2-dimethyl-aminoethyl) benzamide], for which the IC50 worked out at 3.8 µM.

As for `Nc1ccc(-c2cn3c(-c4cccc(O)c4)cnc3cn2)cn1` [Compound 238, 3-[6-(6-amino-3-pyridyl)imidazo [1,2-a]pyrazin-3-yl]phenol], the IC50 stood at 2.89 µM.

As to `CN(C)CCNC(=O)c1ccc(-c2cn3c(-c4cccc(O)c4)cnc3cn2)cc1` [Compound 239, N-(2-dimethylamino-ethyl)-4-[3-(3-hydroxyphenyl)imidazo[1,2-a]pyrazin-6-yl]benzamide], the IC50 came to 0.812 µM.

As for `CN(C)CCNC(=O)c1ccc(-c2cn3c(-c4ccc(Cl)cc4)cnc3cn2)cc1` [Compound 240, 4-[3-(4-chlorophenyl)imidazo[1,2-a]pyrazin-6-yl]-N-(2-dimethylamino-ethyl)benzamide], the IC50 came to 4.16 µM.

Take `Oc1cccc(-c2cnc3cnc(-c4ccc(NCCN5CCOCC5)nc4)cn23)c1` [Compound 241, 3-[6-[6-(2-morpholino-ethylamino)-3-pyridyl]imidazo [1,2-a]pyrazin-3-yl]phenol]: the IC50 turned out to be 2.94 µM.

As to `CN(C)CCCNC(=O)c1ccc(-c2cn3c(-c4cccc(O)c4)cnc3cn2)cc1` [Compound 242, N-[3-(dimethylamino)propyl]-4-[3-(3-hydroxyphenyl)imidazo[1,2-a]pyrazin-6-yl]benzamide], the IC50 worked out at 1.61 µM.

Consider `O=C(NCCO)c1ccc(-c2cn3c(-c4cccc(O)c4)cnc3cn2)cc1` [Compound 243, N-(2-hydroxyethyl)-4-[3-(3-hydroxyphenyl)imidazo[1,2-a]pyrazin-6-yl]benzamide], for which the IC50 turned out to be 1.72 µM.

On to `CN(C)CCCNC(=O)c1ccc(-c2cn3c(-c4ccc5c(c4)OCO5)cnc3cn2)cc1` [Compound 244, 4-[3-(1,3-benzodioxol-5-yl)imidazo[1,2-a]pyrazin-6-yl]-N-[3-(dimethylamino)propyl]benzamide], for which the IC50 amounted to 6.03 µM.

On to `CN1CCN(c2ccc(-c3cn4c(-c5ccccc5)cnc4cn3)cn2)CC1` [Compound 245, 6-[6-(4-methylpiperazin-1-yl)-3-pyridyl]-3-phenyl-imidazo[1,2-a]pyrazine], for which the IC50 came to 10.9 µM.

`CC(C)N1CCN(c2ccc(-c3cn4c(-c5cccc(O)c5)cnc4cn3)cc2)CC1` [Compound 246, 3-[6-[4-(4-isopropyl-piperazin-1-yl)phenyl]imidazo [1,2-a]pyrazin-3-yl]phenol]: the IC50 was 2.61 µM.

Regarding `Nc1ccc(-c2cn3c(-c4ccc5c(c4)OCO5)cnc3cn2)cn1` [Compound 247, 5-[3-(1,3-benzodioxol-5-yl)imidazo[1,2-a]pyrazin-6-yl]pyridin-2-amine], the IC50 turned out to be 10.2 µM.

With `CN(C)CCCOc1ccc(-c2cn3c(-c4ccc(O)cc4)cnc3cn2)cn1` [Compound 248, 4-[6-[6-[3-(dimethylamino)propoxy]-3-pyridyl]imidazo [1,2-a]pyrazin-3-yl]phenol], the half-inhibitory concentration (IC50) was 1.32 µM.

Consider `Oc1ccc(-c2cnc3cnc(-c4ccc(NCCN5CCOCC5)nc4)cn23)cc1` [Compound 249, 4-[6-[6-(2-morpholino-ethylamino)-3-pyridyl]imidazo [1,2-a]pyrazin-3-yl]phenol], for which the IC50 was determined as 1.31 µM.

Consider `CN1CCN(c2ccc(-c3cn4c(-c5ccc(O)cc5)cnc4cn3)cn2)CC1` [Compound 250, 4-[6-[6-(4-methylpiperazin-1-yl)-3-pyridyl]imidazo [1,2-a]pyrazin-3-yl]phenol], for which the IC50 came out at 2.21 µM.

Regarding `CN(C)C(=O)c1cccc(-c2cnc3sc(NC4CCCCC4)nn23)c1` [Compound 251, 3-[2-(cyclo-hexylamino)imidazo[2,1-a] [1,3,4]thiadiazol-5-yl]-N,N-dimethyl-benzamide], the 50% inhibitory concentration (IC50) worked out at 0.718 µM.

Regarding `CN(C)C(=O)c1cccc(-c2cnc3sc(NCCc4ccc(S(N)(=O)=O)cc4)nn23)c1` [Compound 252, N,N-dimethyl-3-[2-[2-(4-sulfamoylphenyl)ethylamino]imidazo[2,1-a] [1,3,4]thiadiazol-5-yl]benzamide], the IC50 worked out at 0.909 µM.

As for `CN(C)C(=O)c1cccc(-c2cnc3sc(NC4CCC(O)CC4)nn23)c1` (stereo not shown) [Compound 253, 3-[2-[(4-hydroxycyclo-hexyl)amino]imidazo[2,1-b] [1,3,4]thiadiazol-5-yl]-N,N-dimethyl-benzamide], the IC50 was 0.533 µM.

For the compound `CC(=O)c1cccc(-c2cnc3sc(NC4CCC(O)CC4)nn23)c1` (stereo not shown) [Compound 254, 1-[3-[2-[(4-hydroxycyclo-hexyl)amino]imidazo[2,1-a] [1,3,4]thiadiazol-5-yl]phenyl] ethanone], the IC50 amounted to 0.487 µM.

In the case of `COc1ccc(-c2cnn3c(N)c(-c4cccc(Cl)c4)cnc23)cc1OC` [Compound 255, 6-(3-chlorophenyl)-3-(3,4-dimethoxyphenyl) pyrazolo[1,5-a]pyrimidin-7-amine], the IC50 was found to be 0.804 µM.

On to `CC(=O)Nc1cccc(-c2cnc3sc(NCc4ccco4)nn23)c1` [Compound 256, N-[3-[2-(2-furylmethylamino)imidazo[2,1-a] [1,3,4]thiadiazol-5-yl]phenyl] acetamide], for which the IC50 stood at 4.57 µM.

As for `CN(C)C(=O)c1cccc(-c2cnc3sc(NCC4CC4)nn23)c1` [Compound 257, 3-[2-(cyclopropyl-methylamino)imidazo[2,1-d] [1,3,4]thiadiazol-5-yl]-N,N-dimethyl-benzamide], the IC50 stood at 0.977 µM.
